From patent publication US20240083908A1, “TETRAHYDROTHIENOPYRIMIDINESULFONAMIDE COMPOUNDS” (priority 2020, published 2024)

These compounds were tested on Kuramochi cells (assay: Synthetic Lethality Assay of Cancer Cell). Conditions: Homo sapiens; growth inhibition of Kuramochi cells in the presence of methyl methanesulfonate (MMS), 96 hours, CellTiter-Glo.
Format: cell-based
Description: In order to evaluate the cancer cell growth inhibitory effect of the present compound, the inhibitory effect of the compound on the growth of a human ovarian cancer cell line, Kuramochi cells, was examined in the presence of methyl methanesulfonate (MMS) which is used as a DNA methylating agent.
Test compound was dissolved in dimethyl sulfoxide and prepared a 10 mM compound solution. The compound solution was then further serially diluted with dimethyl sulfoxide to prepare a concentration of 400 times test compound solution from 6 mM to 1 μM.
Kuramochi cells were purchased from the JCRB cell bank and cultured at 37° C. in the presence of 5% of CO2 using the complete medium described above. […]
Cell viability after 96 hours was measured by using CellTiter-Glo (registered trademark) Luminescent Cell Viability Assay (manufactured by Promega Corporation) according to the recommended usage.
The luminescence intensity was measured by using a luminescence detection plate reader (Envision, manufactured by PerkinElmer Inc.). The cell viability of each well was calculated as a relative value (%) of the luminescence intensity of each well to which each test compound with each concentration was added in a case where the luminescence intensity of a well to which dimethyl sulfoxide was added instead of the test compound was defined as 100%. […]

For `Cn1cc(Cn2c(=O)c3cc(S(=O)(=O)NC4(C)CC4)sc3n(Cc3ccc4c(c3)CC(=O)N4)c2=O)cn1` [Ex 130, 3-((1-Methyl-1H-pyrazol-4-yl)methyl)-N-(1-methylcyclopropyl)-2,4-dioxo-1-((2-oxoindolin-5-yl)methyl)-1,2,3,4-tetrahydrothieno[2,3-d]pyrimidine-6-sulfonamide], the IC50 was 11700 nM.

These compounds were tested against human recombinant PARG (Homo sapiens (Human), UniProt Q86W56) (assay: PARG Activity Assay). Conditions: recombinant human PARG 0.0185 nM, 1 hour pre-incubation, poly (ADP-ribose) substrate-coated plate, Abs 450.
human recombinant PARG, sequence (Q86W56 whole entry): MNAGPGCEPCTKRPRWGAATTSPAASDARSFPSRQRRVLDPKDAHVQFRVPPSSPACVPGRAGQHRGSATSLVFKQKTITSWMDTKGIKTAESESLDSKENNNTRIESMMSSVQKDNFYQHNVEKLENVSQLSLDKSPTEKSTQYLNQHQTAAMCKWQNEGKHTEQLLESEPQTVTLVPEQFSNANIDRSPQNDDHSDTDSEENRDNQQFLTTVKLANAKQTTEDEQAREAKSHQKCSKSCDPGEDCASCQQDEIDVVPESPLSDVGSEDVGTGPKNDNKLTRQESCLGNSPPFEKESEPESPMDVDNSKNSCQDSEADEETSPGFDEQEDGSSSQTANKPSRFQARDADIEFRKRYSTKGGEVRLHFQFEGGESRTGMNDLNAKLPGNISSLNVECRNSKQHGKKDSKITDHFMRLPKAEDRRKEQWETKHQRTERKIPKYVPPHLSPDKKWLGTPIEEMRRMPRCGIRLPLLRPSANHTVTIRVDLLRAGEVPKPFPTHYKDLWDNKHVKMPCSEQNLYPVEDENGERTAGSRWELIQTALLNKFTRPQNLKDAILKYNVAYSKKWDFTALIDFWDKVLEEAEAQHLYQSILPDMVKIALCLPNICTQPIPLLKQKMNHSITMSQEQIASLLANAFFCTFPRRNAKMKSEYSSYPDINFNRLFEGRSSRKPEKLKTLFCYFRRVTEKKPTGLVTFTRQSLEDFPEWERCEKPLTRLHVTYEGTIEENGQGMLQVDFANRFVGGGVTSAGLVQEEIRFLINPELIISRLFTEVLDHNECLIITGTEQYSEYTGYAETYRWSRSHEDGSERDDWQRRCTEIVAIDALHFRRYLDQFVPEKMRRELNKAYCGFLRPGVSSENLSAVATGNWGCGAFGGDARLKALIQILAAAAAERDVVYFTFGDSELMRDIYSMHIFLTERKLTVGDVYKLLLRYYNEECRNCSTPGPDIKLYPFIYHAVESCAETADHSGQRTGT
Format: biochemical
Description: In order to evaluate the PARG inhibitory activity of the present compound, the inhibitory activity of each test compound against human recombinant PARG was measured. The specific procedure is described below.
Test compound was dissolved in dimethyl sulfoxide and prepared a 10 mM stock solution.
PARG Activity Assay was performed in Streptavidin-coated 96-well plates. […] The substrate solution was added to the 96-well plate at the volume of 200 micro liter per well and incubated for 3 hours at room temperature. After the incubation, the substrate solution was discarded and assay plate was washed 4 times with 220 micro liter of PBS containing 0.1% Tween20 (PBST). […] The diluted enzyme solution was pre-incubated with compounds for 1 hour at room temperature in a 96-well plate and transferred 100 micro liter per well to the poly (ADP-ribose) substrate-coated assay plate. The plate was incubated for 1 hour at 25° C. and then washed 4 times with 220 micro liters of PBST. For the detection of non-digested poly (ADP-ribose) polymer on the plate, mouse anti-poly (ADP-ribose) antibody diluted with 0.2% BSA containing PBS was added 100 micro liters per well and incubated 1 hour at room temperature. Plate was washed 4 times with TBST and 100 micro liter of HRP-labeled anti-mouse Ig antibody was added to the wells. Plate was incubated for 30 minutes at room temperature and then washed 4 times with PBST. For the detection 100 micro liters of TMB substrate solution was added to the wells. After sufficient color development, reaction was stopped by addition of 50 micro liter of 0.2 M […]. The 450 nm absorbance (Abs 450) of each well was read with a micro plate reader. The assay was performed by duplicated and average of 2 independent assays were used for the determination of PARG inhibitor y activity.
Wells treated with dimethyl sulfoxide instead of test compound solution were designated as a Negative Control of assay
Wells treated with 0.2% BSA containing PBS instead of recombinant human PARG protein and with dimethyl sulfoxide instead of test compound solution were designated as a Positive Control of assay.
The PARG Inhibitory Activity (%) was determined by the following formulation.
PARG Inhibitory Activity (%)=[(AbsX−AbsA)/(AbsB−AbsA)]×100
(wherein, • AbsA is absorbance (Abs 450) of Negative Control wells • AbsB is absorbance (Abs 450) of Positive Control wells • AbsX is absorbance (Abs 450) of wells treated with test compound.)
In Table, Ex indicates an Example number shown below.

Going from `CNc1cc(Cn2c(=O)n(Cc3cnn(C)c3)c(=O)c3cc(S(=O)(=O)NC4(C)CC4)sc32)c(F)cc1F` [Ex 124] to `CNc1c(F)cc(Cn2c(=O)n(Cc3cnn(C)c3)c(=O)c3cc(S(=O)(=O)NC4(C)CC4)sc32)cc1F` [Ex 125], the IC50 falls from 73 nM to 20 nM (3.6-fold).

Compared with `Cn1cc(Cn2c(=O)c3cc(S(=O)(=O)NC4(C)CC4)sc3n(Cc3ccc(C#N)cc3)c2=O)cn1` [Ex 53], `Cn1cc(Cn2c(=O)c3cc(S(=O)(=O)NC4(C)CC4)sc3n(Cc3ccc(OC(F)F)cc3)c2=O)cn1` [Ex 51] is 1.6-fold lower in IC50: 52 nM for the first, 33 nM for the second.

Going from `Cn1cc(Cn2c(=O)c3cc(S(=O)(=O)NC4(C)CC4)sc3n(Cc3ccn(C)c(=O)c3)c2=O)cn1` [Ex 85] to `Cn1cc(Cn2c(=O)c3cc(S(=O)(=O)NC4(C)CC4)sc3n(Cc3ccc(=O)n(C)c3)c2=O)cn1` [Ex 88], the IC50 falls from 110 nM to 23 nM (4.8-fold).

Compared with `Cc1ncc(Cn2c(=O)c3cc(S(=O)(=O)NC4(C)CC4)sc3n(Cc3ccc4cn[nH]c4c3)c2=O)s1` [Ex 5], `Cc1ncc(Cn2c(=O)c3cc(S(=O)(=O)NC4(C)CC4)sc3n(Cc3nc4ccccc4[nH]3)c2=O)s1` [Ex 18] is 48-fold higher in IC50: 12 nM for the first, 580 nM for the second.

Going from `Cn1cc(Cn2c(=O)c3cc(S(=O)(=O)NC4(C)CC4)sc3n(CCc3ccccc3)c2=O)cn1` [Ex 132] to `Cc1cc(Cn2c(=O)n(Cc3cnn(C)c3)c(=O)c3cc(S(=O)(=O)NC4(C)CC4)sc32)ccc1F` [Ex 135], the IC50 falls from 660 nM to 37 nM (18-fold).

Going from `CN1CCc2ccc(Cn3c(=O)n(Cc4cnn(C)c4)c(=O)c4cc(S(=O)(=O)NC5(C)CC5)sc43)cc2C1=O` [Ex 118] to `CN1Cc2cc(Cn3c(=O)n(Cc4cnn(C)c4)c(=O)c4cc(S(=O)(=O)NC5(C)CC5)sc43)ccc2C1=O` [Ex 45], the IC50 falls from 120 nM to 13 nM (9.2-fold).

First: Cn1cc(Cn2c(=O)c3cc(S(=O)(=O)NC4(C)CC4)sc3n(Cc3ccc4c(c3)CNC4=O)c2=O)cn1 [Ex 60]
Second: Cn1cc(Cn2c(=O)c3cc(S(=O)(=O)NC4(C)CC4)sc3n(Cc3ccc4c(c3)NC(=O)C4)c2=O)cn1 [Ex 131]
The IC50 of the first is 3.8-fold higher: 24 nM for the first, 6.3 nM for the second. The second is the more potent here.

Compared with `CN(CCO)c1ccc(Cn2c(=O)n(Cc3cnn(C)c3)c(=O)c3cc(S(=O)(=O)NC4(C)CC4)sc32)cc1F` [Ex 76], `CN(c1ccc(Cn2c(=O)n(Cc3cnn(C)c3)c(=O)c3cc(S(=O)(=O)NC4(C)CC4)sc32)cc1F)C1CC1` [Ex 74] is 3.7-fold higher in IC50: 57 nM for the first, 210 nM for the second. The first is the more potent here.

Going from `Cn1cc(Cn2c(=O)c3cc(S(=O)(=O)NC4(C)CC4)sc3n(Cc3ccc4c(c3)CNC4)c2=O)cn1` [Ex 66] to `CN1Cc2ccc(Cn3c(=O)n(Cc4cnn(C)c4)c(=O)c4cc(S(=O)(=O)NC5(C)CC5)sc43)cc2C1` [Ex 67], the IC50 rises from 46 nM to 100 nM (2.2-fold).

Going from `Cc1cc2c(cc1Cn1c(=O)n(Cc3cnn(C)c3)c(=O)c3cc(S(=O)(=O)NC4(C)CC4)sc31)COC2` [Ex 113] to `Cc1nn(C)cc1Cn1c(=O)n(Cc2cnn(C)c2)c(=O)c2cc(S(=O)(=O)NC3(C)CC3)sc21` [Ex 32], the IC50 rises from 94 nM to 6990 nM (74-fold). The first is the more potent here.

Going from `CCC(=O)N1CCC(n2c(=O)n(Cc3cnn(C)c3)c(=O)c3cc(S(=O)(=O)NC4(C)CC4)sc32)CC1` [Ex 93] to `Cn1cc(Cn2c(=O)c3cc(S(=O)(=O)NC4(C)CC4)sc3n(CC3CC3)c2=O)cn1` [Ex 26], the IC50 rises from 180 nM to 370 nM (2.1-fold). The first is the more potent here.

First: Cn1cc(Cn2c(=O)c3cc(S(=O)(=O)NC4(C)CC4)sc3n(Cc3nc4c(s3)CCCC4)c2=O)cn1 [Ex 129]
Second: COCc1ncc(Cn2c(=O)n(Cc3cnn(C)c3)c(=O)c3cc(S(=O)(=O)NC4(C)CC4)sc32)s1 [Ex 58]
The IC50 of the first is 5.7-fold lower: 46 nM for the first, 260 nM for the second.

Going from `Cn1cc(Cn2c(=O)c3cc(S(=O)(=O)NC4(C)CC4)sc3n(CCC3(C)COC3)c2=O)cn1` [Ex 120] to `CC#CCn1c(=O)n(Cc2cnn(C)c2)c(=O)c2cc(S(=O)(=O)NC3(C)CC3)sc21` [Ex 27], the IC50 rises from 120 nM to 250 nM (2.1-fold).

Compared with `CNc1ccc(Cn2c(=O)n(Cc3cnn(C)c3)c(=O)c3cc(S(=O)(=O)NC4(C)CC4)sc32)cc1F` [Ex 73], `Cn1cc(Cn2c(=O)c3cc(S(=O)(=O)NC4(C)CC4)sc3n(Cc3ccc(F)c(Cl)c3)c2=O)cn1` [Ex 48] is 7.1-fold higher in IC50: 17 nM for the first, 120 nM for the second.

`Cn1cc(Cn2c(=O)c3cc(S(=O)(=O)NC4(C)CC4)sc3n(Cc3ccc4[nH]c(=O)oc4c3)c2=O)cn1` [Ex 39] and `Cn1cc(Cn2c(=O)c3cc(S(=O)(=O)NC4(C)CC4)sc3n(Cc3ccc4[nH]c(CO)cc4c3)c2=O)cn1` [Ex 116] are within 1.5-fold of each other in IC50: 21 nM for the first, 15 nM for the second.

Compared with `Cc1ncc(Cn2c(=O)c3cc(S(=O)(=O)NC4(C)CC4)sc3n(CC3CCCO3)c2=O)s1` (centres unmarked) [Ex 15], `Cc1cc(Cn2c(=O)n(Cc3cnc(C)s3)c(=O)c3cc(S(=O)(=O)NC4(C)CC4)sc32)n(C)n1` [Ex 3] is 21-fold lower in IC50: 600 nM for the first, 29 nM for the second.

First: Cn1cc(Cn2c(=O)c3cc(S(=O)(=O)NC4(C)CC4)sc3n(Cc3ccc(N4CCCC4)nc3)c2=O)cn1 [Ex 82]
Second: CO[C@H]1CCN(c2ccc(Cn3c(=O)n(Cc4cnn(C)c4)c(=O)c4cc(S(=O)(=O)NC5(C)CC5)sc43)cn2)C1 [Ex 84]
The IC50 of the first is 2.1-fold lower: 97 nM for the first, 200 nM for the second.

Going from `Cn1cc(Cn2c(=O)c3cc(S(=O)(=O)NC4(C)CC4)sc3n(Cc3ccc(OC4CCC4)cc3)c2=O)cn1` [Ex 69] to `Cn1cc(Cn2c(=O)c3cc(S(=O)(=O)NC4(C)CC4)sc3n(Cc3ccc(OC(F)(F)F)cc3)c2=O)cn1` [Ex 52], the IC50 falls from 280 nM to 100 nM (2.8-fold).

`CN1CCC(Cn2c(=O)n(Cc3cnn(C)c3)c(=O)c3cc(S(=O)(=O)NC4(C)CC4)sc32)CC1=O` (centres unmarked) [Ex 87] and `Cn1cc(Cn2c(=O)c3cc(S(=O)(=O)NC4(C)CC4)sc3n(CC34CC(F)(C3)C4)c2=O)cn1` [Ex 119] are within 1.5-fold of each other in IC50: 220 nM for the first, 240 nM for the second.

`COc1cc(Cn2c(=O)n(Cc3cnn(C)c3)c(=O)c3cc(S(=O)(=O)NC4(C)CC4)sc32)ccn1` [Ex 43] and `Cc1cc(Cn2c(=O)n(Cc3cnn(C)c3)c(=O)c3cc(S(=O)(=O)NC4(C)CC4)sc32)n(C)n1` [Ex 30] are within 1.5-fold of each other in IC50: 29 nM for the first, 37 nM for the second.
